In PMC12596218 (Journal of Lipid Research, 2025):

T1: ASBT (Homo sapiens, UniProt Q12908)
T1 construct: stably transfected with the full open reading frames of human NTCP, ASBT, SOAT, OATP1B1, OATP1B3, OATP2B1, and murine Asbt (mAsbt); expressed in transfected cells; host or cells: HEK293 (Flp-In), stably transfected, tetracycline-induced
T1 sequence (Q12908 1-348): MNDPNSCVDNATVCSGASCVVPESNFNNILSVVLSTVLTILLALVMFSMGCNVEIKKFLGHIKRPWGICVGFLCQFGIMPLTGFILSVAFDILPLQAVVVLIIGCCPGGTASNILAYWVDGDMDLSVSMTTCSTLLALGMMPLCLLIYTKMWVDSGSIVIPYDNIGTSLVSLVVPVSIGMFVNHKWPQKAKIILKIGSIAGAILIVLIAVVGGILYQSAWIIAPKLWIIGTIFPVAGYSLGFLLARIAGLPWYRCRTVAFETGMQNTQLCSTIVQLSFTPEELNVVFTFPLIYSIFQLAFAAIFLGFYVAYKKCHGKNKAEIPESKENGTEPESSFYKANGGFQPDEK

T2: SOAT (Homo sapiens, UniProt Q3KNW5)
T2 construct: stably transfected with the full open reading frames of human NTCP, ASBT, SOAT, OATP1B1, OATP1B3, OATP2B1, and murine Asbt (mAsbt); expressed in transfected cells; host or cells: HEK293 (Flp-In), stably transfected, tetracycline-induced
T2 sequence (Q3KNW5 1-377): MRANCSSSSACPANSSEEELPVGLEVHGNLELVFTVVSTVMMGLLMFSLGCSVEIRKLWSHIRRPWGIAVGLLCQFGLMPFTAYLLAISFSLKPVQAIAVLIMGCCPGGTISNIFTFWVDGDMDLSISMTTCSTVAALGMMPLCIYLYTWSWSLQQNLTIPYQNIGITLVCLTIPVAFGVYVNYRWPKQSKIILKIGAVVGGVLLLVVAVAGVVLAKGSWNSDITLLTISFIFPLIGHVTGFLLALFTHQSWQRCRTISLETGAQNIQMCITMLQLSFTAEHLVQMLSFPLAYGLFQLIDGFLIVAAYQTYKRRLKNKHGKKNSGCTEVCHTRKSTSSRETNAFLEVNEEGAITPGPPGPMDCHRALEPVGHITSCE

B1: ASBT (Homo sapiens) (protein)
chain: MNDPNSCVDNATVCSGASCVVPESNFNNILSVVLSTVLTILLALVMFSMGCNVEIKKFLGHIKRPWGICVGFLCQFGIMPLTGFILSVAFDILPLQAVVVLIIGCCPGGTASNILAYWVDGDMDLSVSMTTCSTLLALGMMPLCLLIYTKMWVDSGSIVIPYDNIGTSLVSLVVPVSIGMFVNHKWPQKAKIILKIGSIAGAILIVLIAVVGGILYQSAWIIAPKLWIIGTIFPVAGYSLGFLLARIAGLPWYRCRTVAFETGMQNTQLCSTIVQLSFTPEELNVVFTFPLIYSIFQLAFAAIFLGFYVAYKKCHGKNKAEIPESKENGTEPESSFYKANGGFQPDEK
B2: ASBT S294T/I295V (ASBT→mAsbt) (Homo sapiens; I295V/S294T) (protein)
chain: MNDPNSCVDNATVCSGASCVVPESNFNNILSVVLSTVLTILLALVMFSMGCNVEIKKFLGHIKRPWGICVGFLCQFGIMPLTGFILSVAFDILPLQAVVVLIIGCCPGGTASNILAYWVDGDMDLSVSMTTCSTLLALGMMPLCLLIYTKMWVDSGSIVIPYDNIGTSLVSLVVPVSIGMFVNHKWPQKAKIILKIGSIAGAILIVLIAVVGGILYQSAWIIAPKLWIIGTIFPVAGYSLGFLLARIAGLPWYRCRTVAFETGMQNTQLCSTIVQLSFTPEELNVVFTFPLIYTVFQLAFAAIFLGFYVAYKKCHGKNKAEIPESKENGTEPESSFYKANGGFQPDEK
B3: murine Asbt (mAsbt) (Mus musculus) (protein)
chain: MDNSSVCPPNATVCEGDSCVVPESNFNAILNTVMSTVLTILLAMVMFSMGCNVEVHKFLGHIKRPWGIFVGFLCQFGIMPLTGFILSVASGILPVQAVVVLIMGCCPGGTGSNILAYWIDGDMDLSVSMTTCSTLLALGMMPLCLFVYTKMWVDSGTIVIPYDSIGISLVALVIPVSFGMFVNHKWPQKAKIILKIGSITGVILIVLIAVIGGILYQSAWIIEPKLWIIGTIFPIAGYSLGFFLARLAGQPWYRCRTVALETGMQNTQLCSTIVQLSFSPEDLNLVFTFPLIYTVFQLVFAAVILGIYVTYRKCYGKNDAEFLEKTDNEMDSRPSFDETNKGFQPDEK
B4: NTCP (Homo sapiens) (protein)
chain: MEAHNASAPFNFTLPPNFGKRPTDLALSVILVFMLFFIMLSLGCTMEFSKIKAHLWKPKGLAIALVAQYGIMPLTAFVLGKVFRLKNIEALAILVCGCSPGGNLSNVFSLAMKGDMNLSIVMTTCSTFCALGMMPLLLYIYSRGIYDGDLKDKVPYKGIVISLVLVLIPCTIGIVLKSKRPQYMRYVIKGGMIIILLCSVAVTVLSAINVGKSIMFAMTPLLIATSSLMPFIGFLLGYVLSALFCLNGRCRRTVSMETGCQNVQLCSTILNVAFPPEVIGPLFFFPLLYMIFQLGEGLLLIAIFWCYEKFKTPKDKTKMIYTAATTEETIPGALGNGTYKGEDCSPCTA
B5: NTCP M290S (NTCP→ASBT) (Homo sapiens; M290S) (protein)
chain: MEAHNASAPFNFTLPPNFGKRPTDLALSVILVFMLFFIMLSLGCTMEFSKIKAHLWKPKGLAIALVAQYGIMPLTAFVLGKVFRLKNIEALAILVCGCSPGGNLSNVFSLAMKGDMNLSIVMTTCSTFCALGMMPLLLYIYSRGIYDGDLKDKVPYKGIVISLVLVLIPCTIGIVLKSKRPQYMRYVIKGGMIIILLCSVAVTVLSAINVGKSIMFAMTPLLIATSSLMPFIGFLLGYVLSALFCLNGRCRRTVSMETGCQNVQLCSTILNVAFPPEVIGPLFFFPLLYSIFQLGEGLLLIAIFWCYEKFKTPKDKTKMIYTAATTEETIPGALGNGTYKGEDCSPCTA
B6: NTCP M290T/I291V (NTCP→mAsbt) (Homo sapiens; I291V/M290T) (protein)
chain: MEAHNASAPFNFTLPPNFGKRPTDLALSVILVFMLFFIMLSLGCTMEFSKIKAHLWKPKGLAIALVAQYGIMPLTAFVLGKVFRLKNIEALAILVCGCSPGGNLSNVFSLAMKGDMNLSIVMTTCSTFCALGMMPLLLYIYSRGIYDGDLKDKVPYKGIVISLVLVLIPCTIGIVLKSKRPQYMRYVIKGGMIIILLCSVAVTVLSAINVGKSIMFAMTPLLIATSSLMPFIGFLLGYVLSALFCLNGRCRRTVSMETGCQNVQLCSTILNVAFPPEVIGPLFFFPLLYTVFQLGEGLLLIAIFWCYEKFKTPKDKTKMIYTAATTEETIPGALGNGTYKGEDCSPCTA

What was measured:
ASBT [1] = target: T1, ASBT; assay: [3H]TC transport and inhibition assay in ASBT-HEK293 cells; type: cell-based; conditions: inhibitor at 100 μM, 1 μM [3H]TC, 10 min
Excerpt: (§1) Human embryonic kidney HEK293 cells, stably transfected with the full open reading frames of human NTCP, ASBT, SOAT, OATP1B1, OATP1B3, OATP2B1, and murine Asbt (mAsbt) were used as reported ([18], [20], [21], [22], [23]). The NTCP, ASBT, and mAsbt constructs were C-terminally tagged with the FLAG epitope, and the SOAT construct was C-terminally tagged with green fluorescent protein. Non-transfected Flp-In HEK293 cells (Thermo Fisher Scientific) served as the control. All cell lines were maintained at 37°C, 5% CO2 and 95% humidity in DMEM/F-12 medium (Thermo Fisher Scientific) supplemented with 10% fetal calf serum (Sigma-Aldrich), 4 mM L-glutamine (PAA) and penicillin/streptomycin (PAA). Expression of the respective carrier protein was induced by tetracycline treatment at 1 μg/ml (Carl Roth GmbH + Co. KG).
(§2) Cells were seeded onto poly-L-lysine-coated 96-well plates, induced with 1 μg/ml tetracycline, and grown to confluence over 72 h at 37°C. Then, cells were washed with tempered (37°C) phosphate-buffered saline (PBS, containing 137.0 mM NaCl, 2.7 mM KCl, 1.5 mM KH2PO4, and 7.3 mM Na2HPO4, at pH 7.4) and preincubated with 80 μl sodium transport buffer (STB, containing 142.9 mM NaCl, 4.7 mM KCl, 1.2 mM MgSO4, 1.2 mM KH2PO4, 1.8 mM CaCl2, and 20.0 mM HEPES, at pH 7.4) for 5 min at 37°C. For inhibition studies, the medium was replaced by 80 μl STB containing the respective inhibitor or solvent alone and cells were further incubated for 5 min at 37°C. Transport experiments were started by adding 20 μl of a 5-fold concentrated substrate solution (solved in STB). For transport experiments under sodium-free conditions the same buffer composition was used as for STB, but sodium chloride was substituted with equimolar concentrations of choline chloride as previously reported ([20], [24]). Transport experiments were stopped by washing twice with ice-cold PBS and the plates were kept cool on ice until adding the lysis buffer [1% sodium dodecyl sulfate (SDS) and 1 N NaOH]. Then, the cell-associated radioactivity of the respective tritium-labeled substrate or ligand was quantified by liquid scintillation counting using MicroScint-20 scintillation cocktail (Revvity) in a Packard Microplate Scintillation Counter TopCount NXT (Packard Instrument Company). For IC50 transport inhibition measurements, the mean uptake values measured in non-carrier-expressing HEK293 control cells were defined as 0% uptake control and were subtracted from all other values. Values from cells without inhibitor and solvent alone were set to 100%. Finally, all net transport data were expressed as uptake or binding as % of control. All transport or inhibition graphs were generated with GraphPad Prism 6 (GraphPad). Determination of half maximal inhibitory concentrations (IC50) was done by nonlinear regression analysis using the equation log (inhibitor) versus response—variable slope settings. All data points of the IC50 curves represent means ± SD of quadruplicate determinations. For Km measurements, BS uptake in the absence of sodium was regarded as carrier-independent unspecific uptake and was subtracted from the transport rates in the presence of sodium to obtain carrier-specific uptake rates (indicated as dashed lines). From the specific uptake rates, Michaelis Menten Km values were calculated by non-linear regression analysis.

SOAT = target: T2, SOAT; assay: [3H]DHEAS transport inhibition assay in SOAT-HEK293 cells; type: cell-based; conditions: inhibitor at 100 μM, 1 μM [3H]DHEAS, 10 min
Excerpt: as §1, §2

ASBT [2] = target: T1, ASBT; assay: Transport inhibition and recovery assay (inhibitor washout) in ASBT-HEK293 cells; type: cell-based; conditions: 100 μM inhibitor 5 min, 240 min recovery
Method: HEK293 cells stably expressing ASBT were seeded onto poly-L-lysine-coated 96-well plates, induced with 1 μg/ml tetracycline, and grown to confluence over 72 h at 37°C. Non-carrier-expressing HEK293 cells were used as control. Then, cells were washed with tempered (37°C) PBS and equilibrated for 5 min with STB. […] After inhibitor preincubation, cells were washed with tempered (37°C) PBS and further incubated in inhibitor-free DMEM (Thermo Fisher Scientific) for 30, 60, 120, or 240 min at 37°C. […] Finally, cell associated radioactivity was determined using the MicroBeta2 liquid scintillation counter (Revvity). For each inhibitor, the mean values from noncarrier-expressing HEK293 cells were set to 0% and transport measurements in the absence of inhibitor (solvent control) were set to 100%.
In the second setup, the inhibitor was thoroughly washed out after the preincubation phase and cells were placed on inhibitor-free medium for different time intervals of 0–240 min (indicated by “recovery time” in Fig. 7A).

ASBT [3] = target: T1, ASBT; assay: as above; type: cell-based; conditions: 100 μM inhibitor, 5 min preincubation, 1 μM [3H]TC
mAsbt [4] = assay: mAsbt inhibition and TC transport by Hallén et al. (2002); type: cell-based, mouse; conditions: from Ki values of ref 42
mAsbt [5] = conditions: ref 42 Hallén et al. (2002); read-out: Ki mAsbt inhibition; cited from earlier work
[6] = substrate: C[C@H](CCC(=O)NCCS(=O)(=O)O)[C@H]1CC[C@H]2[C@@H]3[C@H](O)C[C@@H]4C[C@H](O)CC[C@]4(C)[C@H]3C[C@H](O)[C@]12C; assay: cells, lysate or membranes; conditions: other: sodium-dependent specific uptake, initial linear phase, pH 7.4

Molecule	Km ([6]; 37.0 °C)	Km [6]	also measured
Cc1c(C)c2c(c(C)c1O)CCC(C)(COc1ccc(CC3SC(=O)NC3=O)cc1)O2 (stereo not drawn) [troglitazone]			Inhibition of ASBT [3H]TC transport (ASBT [1]): significantly inhibited; Inhibition of SOAT [3H]DHEAS transport (SOAT): significantly inhibited; ASBT recovery after washout and 240 min in inhibitor-free medium (ASBT [2]): only partial recovery; ASBT inhibition with inhibitor present during uptake (inhibitor + [3H]TC) (ASBT [3]): nearly complete ASBT inhibition
CCCC[C@]1(CC)CS(=O)(=O)c2ccccc2[C@@H](c2ccccc2)N1 [2164U90]			Difference in inhibitor potency mAsbt versus ASBT (mAsbt [4]): 150 fold; Ki (mAsbt [5]): 68 nM
B1	46.0 µM		
B2		25.9 µM	
B3	272.3 µM		
B4	90.9 µM		
B5		15.9 µM	
B6		69.5 µM	
